Columns and labels:
[1] = system: Rabbit Psoas myofibrils (skeletal myosin ATPase); assay: Myofibril ATPase assay, rabbit psoas (skeletal) myofibrils; assay type: biochemical; conditions: rabbit psoas myofibrils; Y75 value
Summary of the method: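 ATPase activity of Triton-washed myofibrils was measured by PK/LDH coupling, following NADH loss at 340 nm every 1.5–2 min for 75 min in PIPES/Ca/EGTA buffer at pH 7.0. Slopes, normalized to vehicle (100%), were fitted to a 4-parameter logistic model. Values are Y75 (25% inhibition) or Y125 (activators).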

[2] = molecular target: T1, Porcine ventricle myofibrils (ventricular myosin ATPase) (Sus scrofa, UniProt P79293); assay: Myofibril ATPase assay, porcine ventricle myofibrils; assay type: biochemical, porcine (Yucatan minipigs); conditions: porcine ventricle myofibrils; Y75 value
T1 construct: Myofibrils from porcine cardiac muscle was isolated from the left ventricle of Yucatan minipigs; tissue Exemplar Genetics; host or cells: left ventricle of Yucatan minipigs, myofibrils prepared in house
T1 sequence (P79293 whole entry): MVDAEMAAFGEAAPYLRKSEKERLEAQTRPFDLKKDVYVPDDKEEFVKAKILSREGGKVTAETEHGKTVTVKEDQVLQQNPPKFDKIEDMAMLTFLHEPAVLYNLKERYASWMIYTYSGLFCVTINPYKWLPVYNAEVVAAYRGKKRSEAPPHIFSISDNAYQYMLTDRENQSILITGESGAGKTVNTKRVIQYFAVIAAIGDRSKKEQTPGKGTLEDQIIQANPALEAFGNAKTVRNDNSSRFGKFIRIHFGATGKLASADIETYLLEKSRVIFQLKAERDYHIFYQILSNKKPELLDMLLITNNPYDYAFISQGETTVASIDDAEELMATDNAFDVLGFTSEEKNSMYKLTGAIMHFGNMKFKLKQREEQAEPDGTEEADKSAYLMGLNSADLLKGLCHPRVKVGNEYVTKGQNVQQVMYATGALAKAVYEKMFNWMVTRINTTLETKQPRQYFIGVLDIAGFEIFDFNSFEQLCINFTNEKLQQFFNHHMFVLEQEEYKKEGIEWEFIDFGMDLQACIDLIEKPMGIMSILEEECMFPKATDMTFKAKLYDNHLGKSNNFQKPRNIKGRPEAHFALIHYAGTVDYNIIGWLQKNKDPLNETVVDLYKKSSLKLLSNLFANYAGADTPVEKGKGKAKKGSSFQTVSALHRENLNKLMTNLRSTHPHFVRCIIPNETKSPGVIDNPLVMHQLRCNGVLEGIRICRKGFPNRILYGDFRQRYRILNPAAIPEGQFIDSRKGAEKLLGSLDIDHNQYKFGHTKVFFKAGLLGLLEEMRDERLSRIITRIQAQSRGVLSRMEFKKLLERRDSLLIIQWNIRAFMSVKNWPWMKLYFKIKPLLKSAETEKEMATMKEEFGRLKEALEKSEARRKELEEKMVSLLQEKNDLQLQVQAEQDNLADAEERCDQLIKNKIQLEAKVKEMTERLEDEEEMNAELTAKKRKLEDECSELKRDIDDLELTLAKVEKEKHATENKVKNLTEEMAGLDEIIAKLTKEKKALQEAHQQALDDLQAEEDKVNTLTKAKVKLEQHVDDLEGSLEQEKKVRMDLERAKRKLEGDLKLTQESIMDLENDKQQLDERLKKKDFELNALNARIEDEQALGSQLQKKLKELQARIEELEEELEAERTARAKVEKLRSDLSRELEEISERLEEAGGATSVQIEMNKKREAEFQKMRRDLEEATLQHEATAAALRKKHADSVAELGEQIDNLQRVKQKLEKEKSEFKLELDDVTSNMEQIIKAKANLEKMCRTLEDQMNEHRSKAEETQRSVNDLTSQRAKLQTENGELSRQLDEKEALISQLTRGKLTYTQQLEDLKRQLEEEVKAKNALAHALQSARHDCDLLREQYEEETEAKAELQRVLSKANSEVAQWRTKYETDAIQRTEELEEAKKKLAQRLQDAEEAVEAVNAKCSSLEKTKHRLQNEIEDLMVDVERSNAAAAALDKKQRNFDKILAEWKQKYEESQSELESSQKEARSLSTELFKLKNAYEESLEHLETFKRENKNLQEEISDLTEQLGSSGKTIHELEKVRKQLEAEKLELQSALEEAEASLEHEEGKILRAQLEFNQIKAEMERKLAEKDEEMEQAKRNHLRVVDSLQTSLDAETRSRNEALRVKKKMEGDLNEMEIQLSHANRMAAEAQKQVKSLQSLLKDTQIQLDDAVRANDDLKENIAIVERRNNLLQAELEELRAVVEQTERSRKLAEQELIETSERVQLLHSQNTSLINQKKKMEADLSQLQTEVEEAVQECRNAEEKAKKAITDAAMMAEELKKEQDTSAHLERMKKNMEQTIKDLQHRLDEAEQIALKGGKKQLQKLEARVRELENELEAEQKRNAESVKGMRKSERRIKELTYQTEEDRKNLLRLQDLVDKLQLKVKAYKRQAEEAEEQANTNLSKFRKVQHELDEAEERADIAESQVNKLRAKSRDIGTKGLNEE
Summary of the method: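 Test compounds acted on myofibrils isolated from the left ventricle of Yucatan minipigs. ADP formation was coupled via pyruvate kinase/lactate dehydrogenase to NADH oxidation, monitored kinetically at 340 nm over 75 min. Rates relative to vehicle were fitted with a 4-parameter logistic model, reported as Y75 (25% inhibition) or Y125 (activation) concentrations.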

[3] = system: Porcine atria myofibrils (atrial myosin ATPase); assay: Myofibril ATPase assay, porcine atria myofibrils; assay type: biochemical; conditions: porcine atria myofibrils; Y75 value (75% activity relative to no compound)
Summary of the method: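 Porcine atrial myofibrils were tested in a PK/LDH-coupled system where ADP from myosin ATPase drives NADH oxidation. Absorbance at 340 nm was read every 1.5-2 min for 75 min and slopes were normalized to vehicle wells. A 4-parameter logistic fit gave Y75 (25% inhibition) or Y125 (activation) concentrations.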

Skeletal EC25 [1] [µM]	Ventricular EC25 [2] [µM]	Atrial EC25 [3] [µM]	SMILES
1.78	23.41	18.17	Cc1nccc2[nH]c(=O)c(CC(=O)N[C@@H](C)c3ccc(C#N)cn3)c(C)c12 (single isomer, unassigned) [compound 254]
0.71	1.77	1.30	Cc1nccc2[nH]c(=O)c(CC(=O)N[C@H](C)c3ccc(C#N)cc3F)c(C)c12 (single isomer, unassigned) [compound 255]
100.00	100.00	100.00	C[C@H](NC(=O)[C@H](C)c1cc2nc(C#N)ccc2[nH]c1=O)c1ccc(F)cc1F (single isomer, unassigned) [compound 257]
100.00	63.55	100.00	C[C@H](NC(=O)[C@@H](C)c1cc2nc(C#N)ccc2[nH]c1=O)c1ccc(F)cc1F (single isomer, unassigned) [compound 258]
3.86	100.00	100.00	Cc1c(CC(=O)N[C@H](C)c2ncc(F)cc2F)c(=O)[nH]c2ccnc(C(F)(F)F)c12 (single isomer, unassigned) [compound 265]
0.21	1.11	0.25	Cc1c(CC(=O)N[C@@H](C)c2ncc(F)cc2F)c(=O)[nH]c2ccnc(C(F)(F)F)c12 (single isomer, unassigned) [compound 266]
100.00	100.00	100.00	Cc1nccc2[nH]c(=O)c(CC(=O)N[C@H](C)c3ncccc3F)c(C)c12 (single isomer, unassigned) [compound 267]
100.00	100.00	100.00	Cc1nccc2[nH]c(=O)c(CC(=O)N[C@@H](C)c3ncccc3F)c(C)c12 (single isomer, unassigned) [compound 268]
100.00	100.00	100.00	Cc1nccc2[nH]c(=O)c(CC(=O)N[C@@H](c3ccc(F)cc3F)C(C)(C)O)c(C)c12 (single isomer, unassigned) [compound 271]
100.00	100.00	100.00	Cc1nccc2[nH]c(=O)c(CC(=O)N[C@H](c3ccc(F)cc3F)C(C)(C)O)c(C)c12 (single isomer, unassigned) [compound 272]
0.97	4.08	2.50	Cc1c(CC(=O)N[C@@H]2COc3cc(F)cc(F)c32)c(=O)[nH]c2ccnc(C#N)c12 (single isomer, unassigned) [compound 273]
0.02	0.13	0.04	Cc1c(CC(=O)N[C@H]2COc3cc(F)cc(F)c32)c(=O)[nH]c2ccnc(C#N)c12 (single isomer, unassigned) [compound 274]
1.29	100.00	78.18	Cc1c(CC(=O)N[C@@H](c2ccc(F)cc2F)C(C)(C)O)c(=O)[nH]c2ccnc(C#N)c12 (single isomer, unassigned) [compound 279]
24.76	100.00	100.00	Cc1c(CC(=O)N[C@H](c2ccc(F)cc2F)C(C)(C)O)c(=O)[nH]c2ccnc(C#N)c12 (single isomer, unassigned) [compound 280]
0.35	1.16	1.55	Cc1c(CC(=O)N[C@H](C)c2ccc(C#N)cc2F)c(=O)[nH]c2ccnc(C#N)c12 (single isomer, unassigned) [compound 282]
0.01	0.10	0.04	Cc1c(CC(=O)N[C@@H](C)c2ccc(C#N)cc2F)c(=O)[nH]c2ccnc(C#N)c12 (single isomer, unassigned) [compound 283]
0.49	10.63	4.56	Cc1c(CC(=O)N[C@H](C)c2ncc(C#N)cc2F)c(=O)[nH]c2ccnc(C#N)c12 (single isomer, unassigned) [compound 284]
0.02	0.16	0.28	Cc1c(CC(=O)N[C@@H](C)c2ncc(C#N)cc2F)c(=O)[nH]c2ccnc(C#N)c12 (single isomer, unassigned) [compound 285]

Skeletal EC25 [1] [µM]	Ventricular EC25 [2] [µM]	Atrial EC25 [3] [µM]	SMILES
8.58	100.00	45.61	COc1ccc([C@@H](C)NC(=O)Cc2c(C)c3c(C)nccc3[nH]c2=O)cc1 (single isomer, unassigned) [compound 286]
100.00	100.00	100.00	COc1ccc([C@H](C)NC(=O)Cc2c(C)c3c(C)nccc3[nH]c2=O)cc1 (single isomer, unassigned) [compound 287]
0.02	0.27	0.08	Cc1nccc2[nH]c(=O)c(CC(=O)N[C@@H]3COc4cc(F)cc(F)c43)c(C)c12 (single isomer, unassigned) [compound 288]
2.54	100.00	28.00	Cc1nccc2[nH]c(=O)c(CC(=O)N[C@H]3COc4cc(F)cc(F)c43)c(C)c12 (single isomer, unassigned) [compound 289]
100.00	100.00	100.00	COc1ccc([C@@H](C)NC(=O)Cc2c(C)c3c(C)nccc3[nH]c2=O)cn1 (single isomer, unassigned) [compound 290]
100.00	100.00	100.00	COc1ccc([C@H](C)NC(=O)Cc2c(C)c3c(C)nccc3[nH]c2=O)cn1 (single isomer, unassigned) [compound 291]
100.00	100.00	100.00	Cc1cccc([C@@H](CO)NC(=O)Cc2c(C)c3c(C)nccc3[nH]c2=O)c1 (single isomer, unassigned) [compound 294]
100.00	100.00	100.00	Cc1nccc2[nH]c(=O)c(CC(=O)N[C@H](C)c3ccc(O)nc3)c(C)c12 (single isomer, unassigned) [compound 295]
100.00	100.00	88.12	Cc1nccc2[nH]c(=O)c(CC(=O)N[C@@H](C)c3ccc(O)nc3)c(C)c12 (single isomer, unassigned) [compound 296]
100.00	100.00	100.00	Cc1nccc2[nH]c(=O)c(CC(=O)N[C@H](C)c3cccc(O)n3)c(C)c12 (single isomer, unassigned) [compound 297]
100.00	100.00	100.00	Cc1nccc2[nH]c(=O)c(CC(=O)N[C@@H](C)c3cccc(O)n3)c(C)c12 (single isomer, unassigned) [compound 298]
100.00	100.00	100.00	Cc1ccc([C@@H](C)NC(=O)Cc2c(C)c3c(C)nccc3[nH]c2=O)cc1 (single isomer, unassigned) [compound 301]
100.00	100.00	100.00	Cc1nccc2[nH]c(=O)c(CC(=O)N[C@H](C)c3cccnc3O)c(C)c12 (single isomer, unassigned) [compound 302]
40.83	100.00	100.00	Cc1nccc2[nH]c(=O)c(CC(=O)N[C@H](CO)c3ncc(F)cc3F)c(C)c12 (single isomer, unassigned) [compound 303]
1.57	100.00	17.26	Cc1c(CC(=O)N[C@H](C)c2ncc(F)cc2F)c(=O)[nH]c2ccnc(C#N)c12 (single isomer, unassigned) [compound 304]
0.02	0.57	0.07	Cc1c(CC(=O)N[C@@H](C)c2ncc(F)cc2F)c(=O)[nH]c2ccnc(C#N)c12 (single isomer, unassigned) [compound 305]
5.05	100.00	11.75	Cc1ccc([C@H](C)NC(=O)Cc2c(C)c3c(C)nccc3[nH]c2=O)cc1 (single isomer, unassigned) [compound 306]
100.00	100.00	100.00	Cc1nccc2[nH]c(=O)c(CC(=O)N[C@@H](C)c3cccnc3O)c(C)c12 (single isomer, unassigned) [compound 307]

From patent US12448369B2 (Edgewise Therapeutics, Inc., priority 2023, dated 2025)
